From the NIST ThermoML archive (doi:10.1021/je900550v)

Settings: 101.33 kPa, Liquid; for speed of sound: Pulse-echo method; for mass density: Vibrating tube method

CCCCC(=O)[O-].C[NH2+]CCO [2-hydroxy-N-methylethanaminium pentanoate]
Settings	mass density [kg/m3]	speed of sound [m/s]	viscosity [mPa·s]
308.15 K	1009.51	1517.6	133.08
308.4 K	1009.34	1516.8	–
308.65 K	1009.18	1516.1	–
308.9 K	1009.01	1515.3	–
309.15 K	1008.84	1514.5	–
309.4 K	1008.67	1513.8	–
309.65 K	1008.5	1513	–
309.9 K	1008.33	1512.2	–
310.15 K	1008.16	1511.4	117.28
310.4 K	1007.99	1510.7	–
310.65 K	1007.82	1509.9	–
310.91 K	1007.65	1509.1	–
311.16 K	1007.48	1508.3	–
311.4 K	1007.31	1507.6	–
311.65 K	1007.14	1506.8	–
311.91 K	1006.97	1506	–
312.16 K	1006.8	1505.3	–
312.41 K	1006.63	1504.5	–
312.66 K	1006.46	1503.7	–
312.91 K	1006.29	1503	–
313.15 K	–	–	102.38
313.16 K	1006.12	1502.2	–
313.4 K	1005.95	1501.4	–
313.66 K	1005.78	1500.7	–
313.9 K	1005.61	1499.9	–
314.15 K	1005.44	1499.1	–
314.4 K	1005.27	1498.3	–
314.65 K	1005.09	1497.6	–
314.9 K	1004.92	1496.8	–
315.15 K	1004.75	1496	91.92
315.41 K	1004.58	1495.3	–
315.65 K	1004.4	1494.5	–
315.91 K	1004.24	1493.8	–
316.16 K	1004.07	1493	–
316.41 K	1003.89	1492.2	–
316.66 K	1003.72	1491.5	–
316.91 K	1003.55	1490.7	–
317.16 K	1003.38	1489.9	–
317.4 K	1003.21	1489.2	–
317.66 K	1003.04	1488.4	–
317.91 K	1002.86	1487.6	–
318.15 K	–	–	80.38
318.16 K	1002.69	1486.9	–
318.41 K	1002.52	1486.1	–
318.65 K	1002.35	1485.3	–
318.9 K	1002.18	1484.6	–
319.16 K	1002	1483.8	–
319.41 K	1001.83	1483.1	–
319.65 K	1001.66	1482.3	–
319.91 K	1001.49	1481.5	–
320.16 K	1001.32	1480.8	–
320.41 K	1001.14	1480	–
320.65 K	1000.97	1479.2	70.74
320.91 K	1000.8	1478.5	–
321.15 K	1000.62	1477.7	–
321.41 K	1000.45	1476.9	–
321.66 K	1000.28	1476.1	–
321.9 K	1000.1	1475.4	–
322.15 K	999.932	1474.6	–
322.41 K	999.756	1473.8	–
322.65 K	999.586	1473.1	–
322.91 K	999.412	1472.3	–
323.15 K	–	–	66.02
323.16 K	999.237	1471.6	–
323.41 K	999.06	1470.8	–
323.65 K	998.891	1470	–
323.91 K	998.715	1469.2	–
324.16 K	998.543	1468.5	–
324.41 K	998.367	1467.7	–
324.65 K	998.196	1467	–
324.9 K	998.022	1466.2	–
325.16 K	997.846	1465.4	–
325.4 K	997.672	1464.7	–
325.66 K	997.495	1463.9	–
325.9 K	997.325	1463.1	–
326.16 K	997.148	1462.4	–
326.41 K	996.977	1461.6	–
326.66 K	996.8	1460.8	–
326.9 K	996.626	1460.1	–
327.16 K	996.452	1459.3	–
327.4 K	996.278	1458.5	–
327.66 K	996.103	1457.8	–
327.9 K	995.927	1457	–
328.15 K	995.753	1456.2	–
328.41 K	995.577	1455.5	–
328.66 K	995.401	1454.7	–
328.9 K	995.229	1453.9	–
329.16 K	995.05	1453.2	–
329.4 K	994.879	1452.4	–
329.65 K	994.701	1451.6	–
329.9 K	994.528	1450.8	–
330.16 K	994.354	1450.1	–
330.41 K	994.177	1449.3	–
330.66 K	993.999	1448.5	–
330.91 K	993.824	1447.8	–
331.16 K	993.649	1447	–
331.41 K	993.472	1446.2	–
331.66 K	993.296	1445.5	–
331.91 K	993.121	1444.7	–
332.16 K	992.945	1443.9	–
332.41 K	992.768	1443.2	–
332.66 K	992.592	1442.4	–
332.91 K	992.415	1441.6	–
333.16 K	992.239	1440.8	–
333.41 K	992.064	1440.1	–
333.66 K	991.886	1439.3	–
333.91 K	991.71	1438.5	–
334.16 K	991.536	1437.8	–
334.41 K	991.358	1437	–
334.66 K	991.18	1436.2	–
334.91 K	991.004	1435.5	–
335.16 K	990.827	1434.7	–
335.41 K	990.651	1434	–
335.66 K	990.472	1433.2	–
335.91 K	990.295	1432.4	–
336.16 K	990.117	1431.7	–
336.41 K	989.938	1430.9	–
336.66 K	989.761	1430.1	–
336.9 K	989.584	1429.3	–
337.16 K	989.407	1428.6	–
337.4 K	989.229	1427.8	–
337.66 K	989.051	1427	–
337.9 K	988.872	1426.3	–
338.15 K	988.703	1425.6	–
